Counter-ions that a name gives are not always drawn.
Target: SSTR5 (Homo sapiens (Human), UniProt P35346)
Experiment: SSTR5 binding assay
Details: CHO-K1 membranes expressing cloned human SSTR5
Protocol: The receptor-ligand binding assays of all 5 subtype of SSTRs were performed with membranes isolated from Chinese hamster ovary (CHO)-K1 cells stably expressing the cloned human somatostatin receptors in 96-well format as previous reported.
The stable cell lines for SSTR1-SSTR5 were developed by stably transfecting with DNA for all five SSTRs using Lipofectamine. […] The assay buffer consisted of 50 mM TrisHCl (pH 7.8) with 1 mM EGTA, […] MgCl2, leupeptin (10 μg/mL), pepstatin (10 μg/mL), bacitracin (200 μg/mL), and aprotinin (0.5 μg/mL). CHO-K1 cell membranes, radiolabeled somatostatin, and unlabeled test compounds were resuspended or diluted in this assay buffer. Unlabeled test compounds were examined over a range of concentrations from 0.01 nM to 10,000 nM.
Compounds exemplified were tested in the SSTR5 binding assay.

Chain of SSTR5 (P35346 whole entry): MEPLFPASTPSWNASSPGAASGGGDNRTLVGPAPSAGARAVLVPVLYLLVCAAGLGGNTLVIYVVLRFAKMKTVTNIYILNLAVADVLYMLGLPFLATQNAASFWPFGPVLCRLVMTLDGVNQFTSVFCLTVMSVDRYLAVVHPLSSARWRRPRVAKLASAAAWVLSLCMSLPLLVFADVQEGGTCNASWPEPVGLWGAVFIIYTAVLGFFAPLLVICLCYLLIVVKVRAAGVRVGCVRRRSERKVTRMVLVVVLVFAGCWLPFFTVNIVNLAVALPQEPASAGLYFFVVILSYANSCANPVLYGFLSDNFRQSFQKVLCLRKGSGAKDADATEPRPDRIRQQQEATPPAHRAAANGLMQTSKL

Structure (SMILES)	IC50 [nM]
CCOc1cc(CN2CCC3(CC2)CN(c2ccc(C(=O)O)cc2)C(=O)O3)cc2c(OCC)cccc12 [Example 5-3, 4-{8-[(4,8-Diethoxynaphthalen-2-yl)methyl]-2-oxo-1-oxa-3,8-diazaspiro[4.5]dec-3-yl}benzoic acid, TFA salt]	0.98
O=C(O)c1ccc(N2CC3(CCN(Cc4c(-c5cc(F)c(F)cc5F)nn(-c5ccccc5)c4Cl)CC3)OC2=O)cc1 [Example 1-39, 4-(8-{[5-Chloro-1-phenyl-3-(2,4,5-trifluorophenyl)-1H-pyrazol-4-yl]methyl}-2-oxo-1-oxa-3,8-diazaspiro[4.5]dec-3-yl)benzoic acid, TFA salt]	44.6
O=C(O)c1ccc(N2CC3(CCN(Cc4cn(-c5ccc6ccccc6c5)nc4-c4ccc(F)c(F)c4F)CC3)OC2=O)cc1 [Example 1-26, 4-(8-{[1-(Naphthalen-2-yl)-3-(2,3,4-trifluorophenyl)-1H-pyrazol-4-yl]methyl}-2-oxo-1-oxa-3,8-diazaspiro[4.5]dec-3-yl)benzoic acid, TFA salt]	2.72
CC1(C)CCOc2c(F)cc(CN3CCC4(CC3)CN(c3ccc(C(=O)O)cc3)C(=O)O4)cc21 [Example 5-14, 4-{8-[(8-Fluoro-4,4-dimethyl-3,4-dihydro-2H-chromen-6-yl)methyl]-2-oxo-1-oxa-3,8-diazaspiro[4.5]dec-3-yl}benzoic acid, TFA salt]	3.62
CC1(C)CC(C)(C)c2cc(CN3CCC4(CC3)CN(c3ccc(C(=O)O)cc3)C(=O)O4)ccc2O1 [Example 5-11, 4-{2-Oxo-8-[(2,2,4,4-tetramethyl-3,4-dihydro-2H-chromen-6-yl)methyl]-1-oxa-3,8-diazaspiro[4.5]dec-3-yl}benzoic acid, TFA salt]	14
COc1ccc2c(CN3CCC4(CC3)CN(c3ccc(C(=O)O)cc3)C(=O)O4)nn(CC(=O)C(C)(C)C)c2c1 [Example 6-15, 4-(8-{[1-(3,3-Dimethyl-2-oxobutyl)-6-methoxy-1H-indazol-3-yl]methyl}-2-oxo-1-oxa-3,8-diazaspiro[4.5]dec-3-yl)benzoic acid, TFA salt]	1200
COc1ccc2c(CN3CCC4(CC3)CN(c3ccc(C(=O)O)cc3)C(=O)O4)cn(-c3ccccc3)c2c1 [Example 6-23, 4-{8-[(6-Methoxy-1-phenyl-1H-indol-3-yl)methyl]-2-oxo-1-oxa-3,8-diazaspiro[4.5]dec-3-yl}benzoic acid, TFA salt]	9.06
CCOc1cc(CN2CCC3(CC2)CN(c2ccc(O)nc2)C(=O)O3)cc(OCC)c1-c1ccc(F)cc1 [Example 3-13, 8-[(2,6-Diethoxy-4-fluorobiphenyl-4-yl)methyl]-3-(6-hydroxypyridin-3-yl)-1-oxa-3,8-diazaspiro[4.5]decan-2-one, TFA salt]	3.8
Cc1cc(CN2CCC3(CC2)CN(c2ccc(C(=O)O)cc2)C(=O)O3)cc2c1OCCC2C (stereo not shown) [Example 5-16, 4-{8-[(4,8-Dimethyl-3,4-dihydro-2H-chromen-6-yl)methyl]-2-oxo-1-oxa-3,8-diazaspiro[4.5]dec-3-yl}benzoic acid, TFA salt]	1.81
CC(C)(C)n1cc(CN2CCC3(CC2)CN(c2ccc(-c4nn[nH]n4)cc2)C(=O)O3)c(-c2cc(F)c(Cl)cc2F)n1 [Example 1-29, 8-{[1-tert-Butyl-3-(4-chloro-2,5-difluorophenyl)-1H-pyrazol-4-yl]methyl}-3-[4-(2H-tetrazol-5-yl)phenyl]-1-oxa-3,8-diazaspiro[4.5]decan-2-one, TFA salt]	0.582
CC(C)(C)n1cc(CN2CCC3(CC2)CN(c2ccc(C(=O)O)cc2)C(=O)O3)c(-c2cc(F)c(F)cc2F)n1 [Example 1-7, 4-(8-{[1-tert-Butyl-3-(2,4,5-trifluorophenyl)-1H-pyrazol-4-yl]methyl}-2-oxo-1-oxa-3,8-diazaspiro[4.5]dec-3-yl)benzoic acid, TFA salt]	2.62
Cn1cc(-c2ccc(F)c(F)c2F)c(CN2CCC3(CC2)CN(c2ccc(C(=O)O)cc2)C(=O)O3)n1 [Example 2-1, 4-(8-{[1-Methyl-4-(2,3,4-trifluorophenyl)-1H-pyrazol-3-yl]methyl}-2-oxo-1-oxa-3,8-diazaspiro[4.5]dec-3-yl)benzoic acid, TFA salt]	2950
CC(C)(C)c1nc(-c2cc(F)c(F)cc2F)c(CN2CCC3(CC2)CN(c2ccc(C(=O)O)cc2)C(=O)O3)s1 [Example 6-35, 4-(8-{[2-tert-Butyl-4-(2,4,5-trifluorophenyl)-1,3-thiazol-5-yl]methyl}-2-oxo-1-oxa-3,8-diazaspiro[4.5]dec-3-yl)benzoic acid, TFA salt]	1.74
COc1ccc(-c2nc(C3CCCCC3)sc2CN2CCC3(CC2)CN(c2ccc(C(=O)O)cc2)C(=O)O3)cc1 [Example 6-28, 4-(8-{[2-Cyclohexyl-4-(4-methoxyphenyl)-1,3-thiazol-5-yl]methyl}-2-oxo-1-oxa-3,8-diazaspiro[4.5]dec-3-yl)benzoic acid, TFA salt]	1.34
CCOc1cc(CN2CCC3(CC2)CN(c2ccc(C(=O)O)c(OC)c2)C(=O)O3)cc(OCC)c1-c1ccc(F)cc1 [Example 3-20, 4-{8-[(2,6-Diethoxy-4′-fluorobiphenyl-4-yl)methyl]-2-oxo-1-oxa-3,8-diazaspiro[4.5]dec-3-yl}-2-methoxybenzoic acid, TFA salt]	0.129
COc1ccc(-c2nn(C(C)(C)C)cc2CN2CCC3(CC2)CN(c2ccc(C(=O)O)cc2)C(=O)O3)cc1 [Example 1-10, 4-(8-{[1-tert-Butyl-3-(4-methoxyphenyl)-1H-pyrazol-4-yl]methyl}-2-oxo-1-oxa-3,8-diazaspiro[4.5]dec-3-yl)benzoic acid, TFA salt]	2.86
CCOc1ccc(-c2cc(F)c(F)cc2F)c(CN2CCC3(CC2)CN(c2ccc(C(=O)O)cc2)C(=O)O3)c1 [Example 4-1, 4-{8-[(4-Ethoxy-2′,4′,5′-trifluorobiphenyl-2-yl)methyl]-2-oxo-1-oxa-3,8-diazaspiro[4.5]dec-3-yl}benzoic acid, TFA salt]	0.793
COc1ccc2c(CN3CCC4(CC3)CN(c3ccc(C(=O)O)cc3)C(=O)O4)cn(C)c2c1 [Example 6-19, 4-{8-[(6-Methoxy-1-methyl-1H-indol-3-yl)methyl]-2-oxo-1-oxa-3,8-diazaspiro[4.5]dec-3-yl}benzoic acid, TFA salt]	6.79
CC(C)(C)n1nc(CN2CCC3(CC2)CN(c2ccc(C(=O)O)cc2)C(=O)O3)c2cc(Cl)c(F)cc21 [Example 6-17, 4-{8-[(1-tert-Butyl-5-chloro-6-fluoro-1H-indazol-3-yl)methyl]-2-oxo-1-oxa-3,8-diazaspiro[4.5]dec-3-yl}benzoic acid, TFA salt]	61.6
CCOc1cc(CN2CCC3(CC2)CN(c2ccc(C(=O)O)cc2)C(=O)O3)c(-n2cc(C)cn2)cc1C [Example 4-28, 4-{8-[5-Ethoxy-4-methyl-2-(4-methyl-1H-pyrazol-1-yl)benzyl]-2-oxo-1-oxa-3,8-diazaspiro[4.5]dec-3-yl}benzoic acid, TFA salt]	0.395
CC(C)(C)n1cc(CN2CCC3(CC2)CN(c2ccc(C(=O)O)c(Cl)c2)C(=O)O3)c(-c2cc(F)c(Cl)cc2F)n1 [Example 1-13, 4-(8-{[1-tert-Butyl-3-(4-chloro-2,5-difluorophenyl)-1H-pyrazol-4-yl]methyl}-2-oxo-1-oxa-3,8-diazaspiro[4.5]dec-3-yl)-2-chlorobenzoic acid, TFA salt]	4.09
O=C(O)c1ccc(N2CC3(CCN(Cc4cn(C5CCCCC5)nc4-c4ccc(OC(F)(F)F)cc4)CC3)OC2=O)cc1 [Example 1-23, 4-[8-({1-Cyclohexyl-3-[4-(trifluoromethoxy)phenyl]-1H-pyrazol-4-yl}methyl)-2-oxo-1-oxa-3,8-diazaspiro[4.5]dec-3-yl]benzoic acid, TFA salt]	2.26
O=C(O)c1ccc(N2CC3(CCN(Cc4nc(C5CC5)oc4-c4ccc(F)c(Cl)c4)CC3)OC2=O)cc1 [Example 6-31, 4-(8-{[5-(3-Chloro-4-fluorophenyl)-2-cyclopropyl-1,3-oxazol-4-yl]methyl}-2-oxo-1-oxa-3,8-diazaspiro[4.5]dec-3-yl)benzoic acid, TFA salt]	414
CCOc1cc(CN2CCC3(CC2)CN(c2ccc(-c4nn[nH]n4)cc2OC)C(=O)O3)cc(OCC)c1-c1ccc(F)cc1 [Example 3-7, 8-[(2,6-Diethoxy-4′-fluorobiphenyl-4-yl)methyl]-3-[2-methoxy-4-(2H-tetrazol-5-yl)phenyl]-1-oxa-3,8-diazaspiro[4.5]decan-2-one, TFA salt]	7.06
CCOc1cc(CN2CCC3(CC2)CN(c2ccc(C(=O)O)cc2)C(=O)O3)cc2c(OC)cc(Cl)cc12 [Example 5-5, 4-{8-[(6-Chloro-4-ethoxy-8-methoxynaphthalen-2-yl)methyl]-2-oxo-1-oxa-3,8-diazaspiro[4.5]dec-3-yl}benzoic acid, TFA salt]	0.65
CCOc1ccc(-c2ccc(F)c(F)c2F)c(CN2CCC3(CC2)CN(c2ccc(C(=O)O)cc2)C(=O)O3)c1 [Example 4-5, 4-{8-[(4-Ethoxy-2′,3′,4′-trifluorobiphenyl-2-yl)methyl]-2-oxo-1-oxa-3,8-diazaspiro[4.5]dec-3-yl}benzoic acid, TFA salt]	0.556
CCOc1cc(CN2CCC3(CC2)CN(c2ccc(C(=O)O)c(F)c2)C(=O)O3)cc(OCC)c1-c1ccc(F)cc1 [Example 3-18, 4-{8-[(2,6-Diethoxy-4′-fluorobiphenyl-4-yl)methyl]-2-oxo-1-oxa-3,8-diazaspiro[4.5]dec-3-yl}-2-fluorobenzoic acid, TFA salt]	1.15
O=C(O)c1ccc(N2CC3(CCN(Cc4n[nH]c5ccc(F)cc45)CC3)OC2=O)cc1 [Example 6-1, 4-{8-[(5-Fluoro-1H-indazol-3-yl)methyl]-2-oxo-1-oxa-3,8-diazaspiro[4.5]dec-3-yl}benzoic acid, TFA salt]	1170
